Patent publication US20220273659A1, “HETEROCYCLIC COMPOUNDS AS KINASE INHIBITORS” (NUVATION BIO INC., priority 2019, published 2022)
Where two headings read alike, the source gives them in different places.

What was measured:
CDK2 (cyclin A) = molecular target: T1, CDK2 (cyclin A) (Homo sapiens, UniProt P24941); test: Z'-LYTE kinase assay; format: biochemical
T1 construct: purchased Invitrogen Life Technologies (assay service)
How it was run: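 FRET-based Z′-LYTE read-out using 1.22–10.3 ng CDK2/cyclin A with Ser/Thr 12 peptide (2 μM in the 2× mix) and ATP (31 μM as the 4× solution), in HEPES pH 7.5, MgCl2, EGTA and BRIJ-35, for 60 min at room temperature. After 1 h of development, the 445/520 nm emission was read, and percent inhibition was fitted to a four-parameter logistic curve for IC50.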

CDK4 = molecular target: T2, CDK4 (Homo sapiens, UniProt P11802); test: In vitro kinase inhibition IC50, luminescence (ADP Glo), retinoblastoma substrate; format: biochemical; details: read-out: CDK4/D1 IC50
T2 construct: purchased Invitrogen PR8064A
How it was run: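 CDK4 enzyme (5 nM, Invitrogen) was combined with test compound and a mix of retinoblastoma substrate (1 μM) plus ATP (25 μM) in kinase buffer, 30 μL/well in 96-well half area white plates. After 2H at room temperature, ADP Glo reagent stopped the reaction for 45 min, then detection reagent was added and luminescence was read.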

CDK6 = molecular target: T3, CDK6 (Homo sapiens, UniProt Q00534); test: as above; format: biochemical; details: read-out: CDK6/D1 IC50
T3 construct: purchased Invitrogen PR8422B
How it was run: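 Recombinant CDK6 (5 nM) with retinoblastoma substrate (1 μM) and 25 μM ATP, compound at final 0.1–200 nM, incubated 2 h at room temperature. ADP formed detected by ADP-Glo luminescence. IC50 from four-parameter logistic fit of percent inhibition.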

CDK1 (cyclin B) = molecular target: T4, CDK1 (cyclin B) (Homo sapiens, UniProt P06493); test: Z'-LYTE kinase assay; format: biochemical
T4 construct: purchased Invitrogen Life Technologies (assay service)
Experimental: The plates were shaken for 30 seconds, and incubated for 60 minutes at room temperature. […] The plates were read on fluorescence plate reader with Dual emission at 445 nm and 520 nm.
The following equations were used for Z′-LYTE™ Screening Assay Data Analysis.

[1] = tested on: MCF-7 breast adenocarcinoma cells; test: Cancer cell proliferation assay, single agent (cell viability); format: cell-based; details: Homo sapiens
How it was run: (§1)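 Cells seeded day 1, then exposed on day 2 to 7–9 compound concentrations (e.g. 1.1 nM–10 μM); BT-549 for 24 h, MCF-7 and DU4475 for 144 h with medium change at 72 h. Viability by CellTiter-Glo or resazurin; IC50 from variable-slope sigmoidal fit.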

[2] = tested on: DU4475 breast carcinoma cells; test: as above; format: cell-based; details: Homo sapiens, DU-4475; Table 4; Rb negative; treatment 144 Hr with medium change at 72 Hr; Cell Titer-Glo or resazurin
How it was run: as §1

[3] = tested on: MCF-7-PR (palbociclib-resistant MCF-7) cells; test: Cell viability in palbociclib-resistant cell line; format: cell-based; details: Homo sapiens, MCF7; Table 5; palbociclib-resistant cell line maintained at about 850 nM palbociclib
Experimental: Cells were treated with test compounds at 7 to 9 concentrations within a desired concentration range (e.g. 1.1 nM-10 μM) on day 2 by series diluting the test compound stock solution (10 mM in DMSO) with culture medium. Treatment duration was 24 Hr for BT-549 cells and 144 Hr (with a medium change at 72 Hr) for MCF-7 and DU4475 cells. Cell viability was assessed by Cell Titer-Glo® as recommended by Promega (Cat. No.: G7572), or by resazurin assay (Sigma Aldrich, Cat. No.: R7017) post treatment.
Cell viability data were plotted using GraphPad Prism (GraphPad Software, Inc., San Diego, Calif.). In addition, a nonlinear regression model with a sigmoidal dose response and variable slope within GraphPad Prism was used to calculate the IC50 value of individual test compounds.
The effects of test compounds in a palbociclib-resistant cell line and a parental, non-resistant cell line were compared. The palbociclib-resistant cell line (“MCF-7-PR”) was derived from the parental, non-resistant cell line (MCF-7 breast adenocarcinoma cells) by culture of cells over a period of three months in increasing concentrations of palbociclib, starting from about 350 nM and ending at about 850 nM, the final concentration at which they were then maintained in culture. The MCF-7-PR cells were checked using a cell viability assay to confirm that they had at least 5-fold resistance to palbociclib compared to parental MCF-7 cells, as measured by an increase in the cell viability IC50 values. Assessment of cell viability following treatment with palbociclib or test compounds was performed according to the method described above for MCF-7 cells.

[4] = MCF7, Table 4, Rb positive, treatment 144 Hr with medium change at 72 Hr, Cell Titer-Glo or resazurin
[5] = MCF7, Table 5, parental, non-resistant cell line compared with MCF-7-PR

T2 sequence (P11802 whole entry): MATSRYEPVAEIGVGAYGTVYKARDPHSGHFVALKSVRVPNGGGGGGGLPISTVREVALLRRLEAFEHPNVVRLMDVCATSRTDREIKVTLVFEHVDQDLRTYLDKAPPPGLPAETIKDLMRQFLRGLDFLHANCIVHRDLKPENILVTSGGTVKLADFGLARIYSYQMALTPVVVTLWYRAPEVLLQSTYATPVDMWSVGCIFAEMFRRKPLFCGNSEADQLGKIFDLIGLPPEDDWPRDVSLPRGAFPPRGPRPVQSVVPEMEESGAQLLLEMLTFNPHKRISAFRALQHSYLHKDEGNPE
T2 sequence (P24385 whole entry partner): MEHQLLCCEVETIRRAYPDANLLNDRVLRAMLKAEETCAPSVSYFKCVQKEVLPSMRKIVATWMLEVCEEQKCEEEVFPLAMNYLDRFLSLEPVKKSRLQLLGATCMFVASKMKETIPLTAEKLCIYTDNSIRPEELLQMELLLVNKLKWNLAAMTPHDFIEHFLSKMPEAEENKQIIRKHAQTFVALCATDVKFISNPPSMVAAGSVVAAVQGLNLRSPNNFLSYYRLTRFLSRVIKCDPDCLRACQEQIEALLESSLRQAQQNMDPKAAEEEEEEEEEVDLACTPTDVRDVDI
T4 sequence (P06493 whole entry): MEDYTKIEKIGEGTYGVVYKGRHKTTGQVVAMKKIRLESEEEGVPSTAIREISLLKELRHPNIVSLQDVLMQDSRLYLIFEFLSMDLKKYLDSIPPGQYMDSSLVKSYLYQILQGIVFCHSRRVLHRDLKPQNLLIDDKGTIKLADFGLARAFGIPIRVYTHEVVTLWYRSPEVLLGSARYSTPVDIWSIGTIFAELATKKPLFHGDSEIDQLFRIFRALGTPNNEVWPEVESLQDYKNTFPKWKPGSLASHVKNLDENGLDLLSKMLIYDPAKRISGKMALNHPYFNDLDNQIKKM
T4 sequence (P14635 whole entry partner): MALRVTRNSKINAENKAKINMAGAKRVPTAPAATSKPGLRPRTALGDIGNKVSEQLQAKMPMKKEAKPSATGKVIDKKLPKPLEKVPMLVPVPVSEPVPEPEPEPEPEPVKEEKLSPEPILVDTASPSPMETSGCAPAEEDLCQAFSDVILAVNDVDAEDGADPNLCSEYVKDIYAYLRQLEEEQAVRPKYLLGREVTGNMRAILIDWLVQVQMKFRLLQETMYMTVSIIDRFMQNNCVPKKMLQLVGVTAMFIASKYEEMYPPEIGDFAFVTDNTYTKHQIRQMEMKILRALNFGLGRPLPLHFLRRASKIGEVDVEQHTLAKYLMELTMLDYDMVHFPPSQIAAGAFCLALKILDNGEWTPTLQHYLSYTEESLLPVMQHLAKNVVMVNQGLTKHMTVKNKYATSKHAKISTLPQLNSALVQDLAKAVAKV
T3 sequence (Q00534 whole entry): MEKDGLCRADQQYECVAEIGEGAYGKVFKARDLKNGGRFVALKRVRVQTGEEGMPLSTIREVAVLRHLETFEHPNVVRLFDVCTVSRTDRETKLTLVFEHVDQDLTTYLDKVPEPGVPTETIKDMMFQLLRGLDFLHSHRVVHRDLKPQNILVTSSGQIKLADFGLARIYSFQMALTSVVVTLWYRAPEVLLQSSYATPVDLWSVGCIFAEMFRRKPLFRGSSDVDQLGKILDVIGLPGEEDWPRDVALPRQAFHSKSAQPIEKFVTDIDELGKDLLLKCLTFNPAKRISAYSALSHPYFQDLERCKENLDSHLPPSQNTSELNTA
T3 sequence (P24385 whole entry partner): as the sequence (P24385 whole entry partner) above

| SMILES | IC50 (CDK2 (cyclin A)) [nM] | IC50 (CDK4) [nM] | IC50 (CDK6) [nM] | IC50 (CDK1 (cyclin B)) [nM] | IC50 [1, 4] [nM] | IC50 [1, 5] [nM] | IC50 [2] [nM] | IC50 [3] [nM] | IC50 (CDK1 (cyclin B); read-out: CDK1/B IC50) [nM] |
| --- | --- | --- | --- | --- | --- | --- | --- | --- | --- |
| CS(=O)(=O)N1CCC(Nc2ncc3cc(C#N)c(=O)n(C4CCC(F)(F)C4)c3n2)CC1 (racemic) [Compound No. 345, 8-(3,3-difluorocyclopentyl)-2-((1-(methylsulfonyl)piperidin-4-yl)amino)-7-oxo-7,8-dihydropyrido[2,3-d]pyrimidine-6-carbonitrile] | 30 | 40 | 55 | 1110 | 3140 | 3970 | 3690 | 6230 |  |
| N#Cc1cc2cnc(Nc3ccc(N4CCNCC4)c(F)c3)nc2n(C2CCCC2)c1=O [Compound No. 13, 8-cyclopentyl-2-((3-fluoro-4-(piperazin-1-yl)phenyl)amino)-7-oxo-7,8-dihydropyrido[2,3-d]pyrimidine-6-carbonitrile] |  | 3.5 | 1.5 |  | 158 | 119 |  | 481 |  |
| N#Cc1cc2cnc(Nc3ccc4c(c3)CNCC4)nc2n(C2CCCC2)c1=O [Compound No. 29, 8-cyclopentyl-7-oxo-2-((1,2,3,4-tetrahydroisoquinolin-7-yl)amino)-7,8-dihydropyrido[2,3-d]pyrimidine-6-carbonitrile] | 42 | 7 | 13 |  | 240 |  | 1280 |  | 441 |
| N#Cc1cc2cnc(Nc3ccc4c(c3)CCNC4)nc2n(C2CCCC2)c1=O [Compound No. 31, 8-cyclopentyl-7-oxo-2-((1,2,3,4-tetrahydroisoquinolin-6-yl)amino)-7,8-dihydropyrido[2,3-d]pyrimidine-6-carbonitrile] | 32 | 5 | 9 |  | 130 | 157 | 525 | 248 | 481 |
| CS(=O)(=O)N1CCC(Nc2ncc3cc(C#N)c(=O)n(C4CCCC4)c3n2)CC1 [Compound No. 93, 8-cyclopentyl-2-((1-(methylsulfonyl)piperidin-4-yl)amino)-7-oxo-7,8-dihydropyrido[2,3-d]pyrimidine-6-carbonitrile] | 2.5 | 2.6 | 4 | 53 | 2000 | 558 | 793 | 911 |  |
| CS(=O)(=O)N1CCC(Nc2ncc3cc(C#N)c(=O)n(C4CC5CC5C4)c3n2)CC1 (stereo not drawn) [Compound No. 341, 8-(bicyclo[3.1.0]hexan-3-yl)-2-((1-(methylsulfonyl)piperidin-4-yl)amino)-7-oxo-7,8-dihydropyrido[2,3-d]pyrimidine-6-carbonitrile] | 7 | 3.5 | 8.5 |  | 835 | 487 | 940 | 690 | 197 |
| N#Cc1cc2cnc(Nc3ccc4c(c3)CCNC4)nc2n(C2CC3CC3C2)c1=O (stereo not drawn) [Compound No. 342, 8-(bicyclo[3.1.0]hexan-3-yl)-7-oxo-2-((1,2,3,4-tetrahydroisoquinolin-6-yl)amino)-7,8-dihydropyrido[2,3-d]pyrimidine-6-carbonitrile] | 41 | 10 | 22 |  | 415 | 192 | 485 | 361 | 439 |
